Assay results taken from BigSolDB 2.1.

Conditions: in isobutyl acetate

Cc1ccc(C(=O)O)cc1
Conditions	solubility (mole fraction)
300.19 K	0.0328
303.04 K	0.0338
306.43 K	0.0356
310.28 K	0.0421
312.7 K	0.0434
315.36 K	0.0475
319.97 K	0.0525
323.16 K	0.0573
324.84 K	0.0612
325.76 K	0.0653
329.67 K	0.0692
332.48 K	0.0735
333.91 K	0.0774
335.96 K	0.0813
337.49 K	0.0848
339.46 K	0.0885
341.07 K	0.0918
342.68 K	0.0954
344.69 K	0.0994
345.82 K	0.103
347.26 K	0.107
348.41 K	0.11

O=C(O)c1ccccc1C(=O)O
Conditions	solubility (mole fraction)
300.68 K	0.0011
302.37 K	0.0012
304.42 K	0.0012
309.58 K	0.0016
312.72 K	0.0022
317.36 K	0.0026
326.85 K	0.0032
331.86 K	0.0037
335.27 K	0.005
340.04 K	0.0062
342.69 K	0.0077
348.7 K	0.0092

O=C(O)c1cccc(C(=O)O)c1
Conditions	solubility (mole fraction)
308.15 K	0.000352
313.15 K	0.000388
318.15 K	0.000438
323.15 K	0.000507
328.15 K	0.000691
333.15 K	0.000917
338.15 K	0.0013
343.15 K	0.00166
348.15 K	0.00201
353.15 K	0.00221

O=C(O)c1ccc(C(=O)O)cc1
Conditions	solubility (mole fraction)
305.15 K	2.38e-05
308.15 K	2.57e-05
313.15 K	3.22e-05
318.15 K	3.41e-05
323.15 K	3.86e-05
328.15 K	5.78e-05
333.15 K	7.07e-05
338.15 K	8.25e-05
343.15 K	8.91e-05
348.15 K	0.000104

O=C(O)c1ccccc1
Conditions	solubility (mole fraction)
299.73 K	0.14
302.46 K	0.149
307.34 K	0.178
313.61 K	0.208
322.93 K	0.254
328.98 K	0.293
332.24 K	0.311
334.34 K	0.325
335.58 K	0.337
336.03 K	0.338
337.33 K	0.349
337.67 K	0.351
338.76 K	0.358
339.37 K	0.362
339.86 K	0.369
341.48 K	0.379
342.69 K	0.39
343.67 K	0.399
